Structures are written as SMILES.

Type in all cases: functional
In assay [1] the test system is A549. As to the kind of experiment: Cell cycle arrest in human A549 cells assessed as accumulation at G0/G1 phase at 30 nM after 24 hrs by flow cytometry.
Assay [2] relates to A549. As to the kind of experiment: Cell cycle arrest in human A549 cells assessed as accumulation at S phase at 30 nM after 24 hrs by flow cytometry.
Assay [3] relates to A549. The assay can be described thus: Cell cycle arrest in human A549 cells assessed as accumulation at G2/M phase at 30 nM after 24 hrs by flow cytometry.

For `CN[C@@H]1C[C@H]2O[C@@](C)([C@@H]1OC)n1c3ccccc3c3c4c(c5c6ccccc6n2c5c31)C(=O)NC4` [STAUROSPORINE], the figures for the Activity in assay [1], in assay [2] and in assay [3] were 74.6%, 16.4% and 9.1%, respectively.

The values above are taken from ChEMBL document CHEMBL1138327, “Metal-based paullones as putative CDK inhibitors for antitumor chemotherapy” (2007).
